This passage reports melting point results from a melting point compilation (Tetko et al.; mined from patent text by program, amines drawn as free bases though some values may be those of a salt).

Bounds are passed on as bounds.

Regarding `COc1cc(F)c(-c2nn(C)c(C(F)(F)F)c2Cl)cc1[N+](=O)[O-]`, the melting point (usually the temperature of the solid-liquid transition) amounted to 116 °C.
As for `COc1cc2cc(CO)c(CO)c(-c3ccnc(C4C(=O)CCCC4=O)c3)c2cc1OC`, the figure is more than 220 °C; as for `CCOC(=O)C(C#N)=Cc1cccc(C(F)(F)F)c1Cl`, 50 °C.
As for `Cn1c(=O)c2ccsc2n(CC2CC2)c1=O`, the figure is 75 to 77 °C; as for `OCc1cn(-c2c(Cl)cc(C(F)(F)F)cc2Cl)nn1`, 123 to 125 °C; as for `COc1ccc(-c2c(N)cnc3ccc(Cl)cc23)c(OC)c1OC`, 180 to 181 °C.
As to `COc1ccc2c(c1)c1cc(OC)ccc1c1[nH]c(S(=O)(=O)C(F)(F)F)nc21`, the melting point lay in the range of 228 to 231 °C.
Under `Cc1cc(-n2ccnc2)c2cccc(OCc3c(Cl)ccc(S(=O)(=O)N4CCC[C@H]4C(=O)NCCCN4CCCC4)c3Cl)c2n1` stands 120 °C; under `CN1C(=O)C[C@@H](c2ccccc2)[C@H]1CO`, 93 to 95 °C; under `c1cnc2ccc(Nc3nccc(-c4ccc(N5CCNCC5)nc4)n3)cc2c1`, 199 to 200 °C.
`CC(=O)[NH+]([O-])C[C@@H]1CN(c2ccc(N3CCN(S(=O)(=O)CC#N)CC3)c(F)c2)C(=O)O1` (stereo partly drawn) came in with a melting point of 153 to 156 °C.
Take `COc1ccc(C(=O)C(N=C=S)c2ccc(OC)cc2)cc1` (stereo not drawn): the melting point amounted to 155 °C.
For `CC(C)n1nc(COc2ccccc2CC(=O)O)cc1OCc1ccc2ccccc2n1`, the melting point lay in the range of 116 to 117 °C.
Under `CCNC(=O)c1ccc(N2CCN(Cc3ccc4c(c3)NC(=O)C(C)O4)CC2)c(Cl)c1` (stereo not drawn) stands 239 to 243 °C.
As for `Cn1ncc2[nH]c3c(Br)cccc3c(=O)c21`, the figure is 287 °C.
`O[C@@H](CNCCOc1ccc2oc(-c3ccon3)cc2c1)c1cccc(Cl)c1` came in with a melting point of 112 to 120 °C.
As for `Cc1nn(-c2ccc(Cl)cc2)c(=O)[nH]1`, the melting point was 218 to 219 °C.
As for `Cc1cc(C)c2cccc(OCc3c(Cl)ccc(S(=O)(=O)N4CCC[C@H]4C(=O)N4CCN(S(=O)(=O)c5ccc(C#N)cc5)CC4)c3Cl)c2n1`, the figure is 156 to 158 °C; as for `NC(=O)CNC(=O)c1ccc(-c2cccc3cc(Cc4cccc(C(F)(F)F)c4)sc23)cc1`, 134 to 136 °C.
Take `COC(=O)C(=NO)c1ccccc1COc1ccccc1C`: the melting point came out at 115 °C.
The molecule `COC(=O)CCc1cc(C(C)(C)C)c(O[Si](C)(C)Oc2c(C(C)(C)C)cc(CCC(=O)OC)cc2C(C)(C)C)c(C(C)(C)C)c1` came in with a melting point of 122 to 129 °C.
`CC(=O)Oc1c(C)c(CCl)nc2ccccc12` gave a melting point of 108 to 109 °C.
The molecule `CCOC(=O)Cc1sc(Sc2ccc(OC)nn2)nc1C` came in with a melting point of 47 to 49 °C.
`COc1ccc2[nH]cc(C=C3SC(=S)N(CC(=O)O)C3=O)c2c1` had a melting point of 266 °C.
For `NC(=O)c1ccc(N2CCN(c3ccncc3)CC2)cc1`, the melting point was in the range of 327 to 330 °C.
Under `O=C(N(CCCc1c[nH]c2ccccc12)CCOc1cccc2[nH]c(=O)[nH]c12)C(F)(F)F` stands 180 to 181 °C; under `COC(=O)c1ccc(N2CCCC2)c(NC(=O)C(CSC(C)=O)Cc2ccccc2)c1` (stereo not drawn), 72 to 75 °C.
`COc1ccccc1SCC(=O)NCCCCCC(=O)O` registered a melting point of 95 to 97 °C.
In turn, `CC(C)OC(=O)c1ccc(Nc2cccc(N3CCCCC3)c2)c([N+](=O)[O-])c1` came in with a melting point of 160 to 161 °C.
As for `COc1ccccc1-n1c(=O)[nH]c2c(C(N)=O)nc(Nc3cccc(O)c3)nc21`, the figure is 190 to 191 °C.
`CCCCCCNC(=O)[C@@H]1CCCN1C(=O)[C@@H](N)C(C)C` displayed a melting point of 105 to 106 °C.
As for `C[C@H](CO)Nc1nc(SCc2cccc(F)c2F)nc2[nH]c(=O)cnc12`, the figure is 215 to 217 °C.
Under `OCc1cn2c(n1)CN=C(c1ccccc1Cl)c1cc(Cl)ccc1-2` stands 174 to 175 °C.
Consider `CCOP(=S)(OCC)Oc1nsc(C)c1C(N)=O`, for which the melting point worked out at 68 °C.
`CCOC(=O)c1cc(C(C)C)n(-c2ccc(Cl)cc2Cl)n1`: the melting point was in the range of 93 to 95 °C.
In the case of `COc1cccc2c1CC(C#N)CC2` (stereo not drawn), the melting point is 66 to 68 °C.
With `N#Cc1ccc(NC2CCN(Cc3cc(F)cc(C(F)(F)F)c3)CC2)nn1`, the melting point worked out at 151 °C.
As for `CSCC12CCC(=CF)C=C1CCC1C3CCC(=O)C3(C)CCC12` (stereo not drawn), the figure is 146 to 147 °C; as for `CN(C)c1ccc2ccc(=O)oc2c1`, 161 °C.
Under `Cc1ccccc1NC(=O)c1c(Br)cccc1[Si](C)(C)C` stands 113 to 115 °C; under `CSc1ccc(C(=N)Nc2ccc(C)c(C)c2)cc1`, 111 to 113 °C.
For the molecule `CC(CCc1ccc(OCCO)cc1)NCC(O)c1cccc(Cl)c1` (stereo not drawn), the melting point was 103 to 105 °C.
Under `Cc1cc(O)c2c(c1)CCC2` stands 82 to 83 °C; under `CC(C)CCCC(C)C1CCC2C3CC=C4CC(OCCCCCCSC5OCC(O)C(O)C5O)CCC4(C)C3CCC12C` (stereo not drawn), 115 °C; under `O=C1NC(=O)C(c2cn3c4c(cccc24)CCC3)C1c1ccc(OCc2ccccc2)cc1` (stereo not drawn), 91 to 93 °C.
Under `C#CCOC1(Nc2cccc(OCC3CO3)c2)N=CC(Br)=CN1` (stereo not drawn) stands 173 °C; under `CCOCc1nc2c(N)nc3cccnc3c2n1CC(C)(C)OCCS(C)(=O)=O`, 189 to 191 °C; under `CN(C)CCc1c(-c2ccc3ccccc3c2)[nH]c2ccccc12`, 185 to 186 °C.
`CCC12CCC(c3ccc(Cl)cc3)(OC1)OC2` registered a melting point of 78 °C.
Under `C[C@@H](n1ccn(-c2ccc(OCC(F)(F)C(F)F)cc2)c1=O)[C@](O)(CO)c1ccccc1F` stands 166 to 167 °C.
As for `CCCCCCCCCCN1CCC2(CC1)CSC1=C(O2)c2ccccc2C(=O)C1=O`, the figure is 110 to 111 °C; as for `CC(=O)COc1nc(N2CCCCC2)c2nc(OCC(C)=O)nc(N3CCCCC3)c2n1`, 188 to 189 °C.
Under `C[C@H]1CNCC[C@@]12OC(=O)c1ccccc12` (racemic) stands 131 °C; under `COc1ccc(C(Cn2cc[nH]c2=O)=NO)cc1OC1CCCC1`, 191 °C; under `CCCCCN1C(=O)C2CC(c3ccc(N)cc3)(C2)C1=O`, 92 to 94 °C.
For the molecule `Cc1cc(F)ccc1-c1nc(NCCNC(=O)Nc2cccc(F)c2)nc2c1ccc(=O)n2-c1c(F)cccc1F`, the melting point is 131 to 144 °C.
On to `Cc1[nH]c(/C=C2\C(=O)Nc3cc(NC(=O)NC(=O)c4ccccc4)ccc32)c(C)c1C(=O)O`, for which the melting point was in the range of 270 to 275 °C.
Consider `CC1=Nc2c(C)nn(C)c2C2=NC(C)(C)CN12`, for which the melting point was in the range of 148 to 150 °C.
Under `O=C1CC(=O)[C@H](CC2CCCCC2)N1` stands 165 to 167 °C; under `COc1ccc(C2CCc3ccccc3C2=O)cc1` (stereo not drawn), 107 to 108 °C.
`COc1ccc(Br)c(CC(C#N)C(=O)O)c1OC` (stereo not drawn) yielded a melting point of 120 to 122 °C.
Molecule `CCOC(CCOc1cc(Cc2cnc(N)nc2N)cc(OC)c1OC)OCC` displayed a melting point of 105 to 106 °C.
As to `N#CCCNC(=O)c1cccc(-c2cccn3c(=O)n(Cc4cccc(C(F)(F)F)c4)nc23)c1`, the melting point is 217 to 219 °C.
Consider `Cc1nc2sc(S(N)(=O)=O)cc2c(=O)n1-c1ccccc1Cl`, for which the melting point came to 251 °C.
Turning to `COC(=O)c1cc(OCc2ccccc2)c(OCc2ccccc2)c(CSCC(=O)O)n1`, the melting point was 135 °C.
Under `CC12CCC(O)CC1CCC1C2CCC2(C)C(C(=O)COc3cccnc3)CCC12` (stereo not drawn) stands 63 to 66 °C; under `CCC(=O)OCC(=O)C1(OC(C)=O)CCC2C3CC(C)C4=CC(=O)CCC4(C)C3C(O)CC21C` (stereo not drawn), 99 to 103 °C; under `O=C(Oc1ccccc1)N1CCN2C(=O)OC(c3ccccc3)(c3ccccc3)C2C1` (stereo not drawn), 189 to 191 °C.
For `Cc1ccc(S(=O)(=O)OCC(C)(O)C(=O)c2ccccc2)cc1` (stereo not drawn), the melting point was 88 to 90 °C.
Under `CCS(=O)(=O)c1cc(C(=O)NCC2CCCN2CC2CCCC2)c(OC)cc1N` (stereo not drawn) stands 140 to 141 °C.
In turn, `O=C(C/C=C/c1ccccc1)Nc1cccc(-n2ccnc2)c1` gave a melting point of 130 to 133 °C.
As for `Nc1ncnc2c1c(-c1ccccc1)cn2-c1cccc(OCCCl)c1`, the figure is 166 to 168 °C.
As for `COc1ccc(-c2cccc3c2/C(=C/c2ccc[nH]2)C(=O)N3)cc1`, the figure is 222 to 223 °C.
Under `Cc1ccc(C2CCN(C(=O)Nc3ccc4nc(CN(C(C)C)C(C)C)ccc4c3)CC2)cc1` stands 184 to 186 °C.
The molecule `Clc1cc(Cl)nc(-n2cnc3ccccc32)n1` displayed a melting point of 173 to 175 °C.
For the molecule `CCOC(=O)c1ccc(NC(=O)N(CCc2ccccc2)c2ccc3c(c2)C(C)(C)CCC3(C)C)cc1`, the melting point lay within 223 to 225 °C.
Turning to `CC(O)=C(C#N)C(=O)Nc1cccc(S(C)(=O)=O)c1`, the melting point fell in the range of 213 to 214 °C.
Under `CSc1ncc(C#N)c(NC(C)C)n1` stands 121 to 122 °C; under `CS(=O)(=O)c1c(Cl)nc(N)nc1Cl`, 275 °C.
Regarding `Cc1onc(CCc2ccccc2)c1C(=O)O`, the melting point was in the range of 154 to 156 °C.
In turn, `CON=C(C)C(=NOC)C(C)=NOCc1ccccc1CON=CC(=O)OC` had a melting point of 105 °C.
Regarding `Cc1ccc(CC(=O)c2sccc2S(=O)(=O)Nc2onc(C)c2C)cc1`, the melting point was in the range of 95 to 100 °C.
As for `COc1cc(Nc2c(C#N)cnc3c2C=C2N=CN=C2C3)cc(OC)c1OC`, the figure is more than 260 °C; as for `CC(C)[C@H](NC(=O)[C@@H]1CCCN1C(=O)[C@@H](NC(=O)Cn1ccc(=O)n(CC(=O)O)c1=O)C(C)C)C(=O)c1nc2ccccc2o1`, 135 to 140 °C; as for `CCCCOc1cc(/C=C(\OCC)C(=O)O)ccc1OCCc1ccc(OS(=O)(=O)CCCC)cc1OC`, 90 °C.
Under `CC(=O)Nc1ccc(NC(=NC#N)Oc2ccccc2)cn1` stands 194 °C; under `Cn1cc(CC(NC(=O)CCS)C(=O)O)c2ccccc21` (racemic), 115 to 117 °C; under `O=C(OCc1ccccc1)N1CCc2c(sc3nc(CCl)c(Cl)c(-c4ccc(OCc5ccccc5)cc4)c23)C1`, 144 to 145 °C.
